Assay results: patent US12161632B2, “Compositions and methods of treating cardiac fibrosis with ifetroban” (Cumberland Pharmaceuticals Inc., priority 2014, dated 2024)
Entries after “also recorded” stand apart in the source; their conditions may differ.

Legend:
[1] = test system: right ventricle under load stress (pulmonary banding); assay: Pulmonary banding load stress model: hemodynamics, heart fibrosis and macrophage infiltration (Example IV); format: in vivo; conditions: banded mice, 25 mg/kg/day in drinking water, 2 weeks
Method: FVB/N mice or mice with a GFP macrophage-specific lineage tracing marker (LysM-Cre) underwent pulmonary banding to directly increase load stress (or sham surgery for controls), and starting the following day received either vehicle or the thromboxane receptor antagonist Ifetroban sodium in their drinking water (25 mg/kg/day). After 2 weeks, noninvasive hemodynamics were obtained by transthoracic echocardiography and invasive hemodynamics were obtained by pressure-volume catheterization of the right heart prior to sacrifice. Hearts were assessed for fibrosis and macrophage infiltration. RNA from right ventricles were isolated and used for unbiased discovery of altered gene expression using Affymetrix Mouse Gene 2.0 arrays performed on four groups (banded or sham). LysM-Cre mouse hearts were flash-frozen whole, cross-sectioned, and assessed by microscopy for fibrosis and macrophage infiltration. Differences between groups were assessed by ANOVA and t-tests. Correlations were assessed by Spearman correlation.

[2] = test system: pulmonary artery banding (PAB) mouse model of pulmonary hypertension; assay: Pulmonary artery banding (PAB) model: cardiovascular phenotyping and histology (Example V); format: in vivo, mice; conditions: 14 days
Method: Experimental Methods: In this pulmonary artery banding (PAB) animal model, we used wildtype or Rosa26-rtTA2 mice on a normal diet. Mice were anesthetized and subject to either PAB (20 mice) or sham surgery (10 mice) at 4-6 months of age. Following the procedure, the mice were given either ifetroban water at 30 mg/kg/day or normal drinking water, and after 14 days of treatment we performed cardiovascular phenotyping followed by terminal sacrifice, histology and gene expression arrays.
Echocardiograms to assess cardiac output were obtained the day prior to catheterization and sacrifice. Our standard cardiovascular phenotyping continued with systemic pressure measurement by tail vein cuff, and intrajugular heart catheterization with measurement of right ventricular systolic pressure (RVSP) for peak pressure, diastolic pressure, diastolic time constant, arterial elastance, ejection fraction, and stroke volume.
(§1) Following sacrifice, right ventricular hypertrophy was assessed in each animal as a percentage of heart weight. A random fraction of the right hearts were fixed in formalin for histology and examined for indices of fibrosis; other hearts were snap frozen for gene expression analysis via RNA microarray. Right hearts and lungs were collected for analysis of protein expression and gene expression array. Left lungs were fixed and stained. Platelet deposition was examined in small pulmonary artery vessels. The remaining organs were harvested and frozen in liquid nitrogen for potential gene expression analysis.

RV gene expression = assay: RV RNA expression arrays in PAB/sham mice (Example V); format: in vivo; conditions: 30 mg/kg/day, 14 days
Method: as §1
As part of this study, RNA extracted and expression analysis was performed using Mouse Genone 2.0 Affymetrix expression arrays. (FIG. 4C). The Array design was 2×2×2: Sham/Banded×Vehicle/Ifetroban×M/F. In total, there were 8 arrays; each array was a pool of RV from 3 mice. Only mice with an RVSP>30 were used for the banded groups. Banding itself altered 199 genes (ABS (Diff in averages)—Sum of standard deviations)>0.4 comparing vehicle banded to sham, and expression of 49 of those genes was enhanced by ifetroban (difference >0.4) and expression of 29 of those genes was attenuated by ifetroban (difference >0.4). […] Res., 2011 Jul. […] 15; 45(4):511-8.

[3] = test system: pulmonary artery banding (PAB) model of right ventricular pressure overload; assay: PAB model of right ventricular pressure overload: hemodynamics, echocardiography, histology (Example VII); format: in vivo; conditions: PAB mice; for RV fibrosis / fibrotic area (Masson's trichrome): ifetroban 25 mg/kg/day in drinking water; for cardiomyocyte diameter / cellular hypertrophy: ifetroban 25 mg/kg/day
Method: (§2) Both male and female age-matched C57Bl/6 or FVB/NJ mice, obtained by in-house breeding, were used for pulmonary artery banding. LysM-GFP mice were obtained by cross-breeding LysM-Cre×mTomato/GFP reporter mice B6.129P2-Lyz2tm1(cre)Ifo/J (a gift from Tim Blackwell)×Gt(ROSA)26Sortm4(ACTB-tdTomato, -EGFP)Luo (JAX stock #007676). The day following surgery, mice were given either 25 mg/kg/day IFETROBAN (Cumberland Pharmaceuticals Inc., Nashville, TN) in drinking water or normal drinking water (vehicle) for 2 weeks or 6 weeks prior to hemodynamic evaluation. Mice were weighed and water was changed once a week.
An RVSP of 30 mmHg was used to define PAH, and only samples from mice at or above this threshold were used for analysis of PAB groups. […] Two weeks after PAB, fibrosis in the RV of untreated mice has increased from <5% to […] (blue stain) in histologic sections of frozen RV stained with Masson's trichrome.
In the previous experiments, there was an increase in RV mass but not yet any change in cardiac output or other functional parameters, apart from E/A wave ratio, following PAB. To determine whether the decrease in fibrosis seen with TP receptor antagonism leads to increased preservation of cardiac function, the period following PAB-induced pressure overload was extended to 6 weeks and dosing with ifetroban was continued to 6 weeks, as well. […] This was associated with a decreased ejection fraction and decreased fractional shortening, signs of cardiac failure. All of these were prevented in PAB mice that received ifetroban, despite similar RVSP. Mice underwent sham surgery or PAB and echocardiography and pressure-loop catheterization performed after 6 weeks. End diastolic and systolic volume of the left ventricle were measured using the average of values calculated using both spherical and cylindrical models. Also obtained from echocardiography were the left ventricular stroke volume and ejection fraction, as well as percent fractional shortening.

[4] = test system: RV monocytes / macrophages; assay: Cardiac monocytes: LysM-Cre lineage tracing and flow cytometry of RV (Example VII); format: in vivo, mice
Method: as §2
TP receptors are also expressed on monocytes, and blockade of these receptors may have immune-specific effects. To determine whether the decrease in fibrosis seen with TP receptor inhibition was due to decreased macrophage infiltration or proliferation in the RV, PAB on LysM-Cre mice expressing eGFP under the LysozymeM promoter was performed, where all cells that have ever had monocyte lineage are labeled with GFP, even if they have later differentiated. […] Transgenic LysM-Cre×flox-mTomato-flox eGFP mice were used to label cells of monocyte derivation in the RV. These mice express a fluorescent red, except in cells derived from monocyte lineage (even if they have later differentiated), which express a fluorescent green. […] Flow sorting of whole RV for circulating markers found a non-significant trend towards an increase in PA-banded mice that was blocked by ifetroban.

## CCCCCNC(=O)c1coc([C@H]2[C@@H](Cc3ccccc3CCC(=O)O)[C@@H]3CC[C@H]2O3)n1 [ifetroban, [1S-(1α,2α,3α,4α)]-2-[[3-[4-[(Pentylamino)carbonyl]-2-oxazolyl]-7-oxabicyclo[2.2.1]hept-2-yl]methyl]-benzenepropanoic acid]
[1]
  fibrosis (heart): reduction in fibrosis
  hemodynamic markers of right heart function under load stress: preserved right heart function under load stress
  recruitment of inflammatory cells: reduction in recruitment of inflammatory cells
[2]; 30 mg/kg/day
  fibrosis in banded right ventricles: decreases fibrosis in banded right ventricles
[2]; PAB mice, 30 mg/kg/day in water
  right ventricular systolic pressure (RVSP): did not have an effect
[2]; banded mice, 30 mg/kg/day, p<0.05 unpaired t test
  ratio of tricuspid E to A wave: significantly increased
[2]; sham surgery and banded, 30 mg/kg/day
  fibrosis in cross-section of the right ventricle (trichrome-stained, 20×): reduced fibrosis in the right ventricle for both the sham surgery and the banded right ventricle
RV gene expression; banded RV pools
  number of the 199 banding-altered genes whose expression was attenuated (difference >0.4): 29 genes
  number of the 199 banding-altered genes whose expression was enhanced (difference >0.4): 49 genes
RV gene expression; banded RV
  expression of FBX032: reduces the expression of FBX032
  expression of Nmrk2, Meox1, Nkd2, and Pkhd1: enhances the expression of other genes
  expression of PDGF: reduces the expression of PDGF
  expression of genes involved with inhibition of TGF-Beta, Asporin and Ltbp2: enhanced the expression
  expression of genes related to collagen and cell-cell adhesion, particularly thrombospondin-4 (Thbs4): enhances the expression
RV gene expression; banded mice
  expression of pro-fibrotic and inflammatory genes: decreases expression
  expression of pro-muscularization genes: increases expression
[3]; 25 mg/kg/day, 2 weeks
  RV mass (ratio of right ventricular weight to left ventricle+septum weight): similarly increased in vehicle- and ifetroban-treated PAB groups; also recorded: not blocked
[3]; 25 mg/kg/day, 2 weeks, p<0.05 by ANOVA
  tricuspid E/A wave ratio (echocardiography): increased; also recorded: improved
[3]; 25 mg/kg/day, 2 weeks, listed as Ifetroban
  RV mass (ratio of right ventricular weight to left ventricle+septum weight): allowing increased RV mass
[3]; 25 mg/kg/day, 6 weeks
  signs of cardiac failure (left ventricular dilation, increased stroke volume, decreased ejection fraction and fractional shortening): more functional adaptation and decreased indications of cardiac failure; also recorded: prevented
[3]; 2 weeks
  RV fibrosis / fibrotic area (Masson's trichrome): almost completely abolished
  cardiomyocyte diameter / cellular hypertrophy: blocked
[3]; 2 weeks, listed as Ifetroban
  RV fibrosis / fibrotic area (Masson's trichrome): near normalization of fibrotic area
  cardiomyocyte diameter / cellular hypertrophy: prevented cellular hypertrophy
[3]; 2 weeks, listed as ifetrobn
  RV fibrosis / fibrotic area (Masson's trichrome): antifibrotic effect
[3]; ifetroban, two weeks following PAB
  protection against pressure overload: protected against pressure overload
[4]; LysM-Cre reporter mice, ifetroban
  PAB-induced increase in green (monocyte lineage) cells in RV: not in ifetroban-treated mice
[4]; wildtype mice, PAB
  flow sorting of whole RV for circulating markers: non-significant trend towards an increase in PA-banded mice: blocked
